The values that follow come from patent US20050003378A1, “Inhibitor of demethylase, antitumorigenic agent, and an in vitro assay for demethylase inhibitors” (priority 2002, published 2005).

Experiment [1] has as its system HEK 293 human embryonal kidney cells. Put plainly: Soft agar assay (anchorage independent growth), HEK 293 cells. The following applies: single 24 hour treatment at 4 mM, colonies counted 7 days after plating. Format: cell-based. Here is the method: (§1) For analysis of growth in soft agar, 3 ×10^3 cells were seeded in triplicate onto a six well dish in 4 ml of complete medium containing 0.33% agar solution at 37° C. (34). Cells were fed with 2 ml of medium twice weekly. The assay was performed in triplicate, and colonies were counted 21 days after plating for A549 cells, and 7 days after plating for HEK 293 cells.
(§2) AdoMetinhibits the tumorigenic properties of two different transformed cells lines, A549 human lung carcinoma cells and HEK 293 human embryonal kidney cells—It is well documented that a correlation exists between reduced intracellular AdoMet (either as a consequence of decreased folate intake or pharmacological intervention) and an increase in cell proliferation and tumorigenesis (2, 19). […] We therefore decided to test whether treatment with AdoMet could inhibit the transformation potential of HEK 293 cells, which were shown here to be responsive to AdoMet inhibition of demethylase. We also tested AdoMet effects on the transformed state of A549, a human lung non-small cell carcinoma cell line, to exclude the possibility that AdoMet effects are an idiosyncrasy of HEK 293 cells. Cells were treated for 24 hours with either AdoMet or AdoHcy at a concentration of 4 mM. An equal number of living cells were seeded onto soft agar to test their anchorage independent growth, an indicator of tumorigenesis in vitro. […]

The subject of experiment [2] is endogenous demethylase activity. Put plainly: Active demethylation of in vitro methylated CMV-GFP transiently transfected into HEK 293 cells (HpaII/MspI digestion, Southern blot). The following applies: for percentage of methylated GFP remaining (inhibition of TSA induced active demethylation of methylated CMV-GFP): 0.3 μM TSA, 2, 4, 8 mM compound, harvested 72 hours post transfection.

The subject of experiment [3] is CMV-GFP expression in HEK 293 cells. Put plainly: GFP expression from transfected CMV-GFP in HEK 293 cells (Western blot). The following applies: for TSA induced GFP expression of methylated CMV-GFP: 0.3 μM TSA, increasing amounts of compound (mM). A general note: A western blot detects proteins with antibodies after separation by electrophoresis.
The target in the next experiment is T1, human MBD2/dMTase (Homo sapiens, UniProt Q9UBB5).
T1 construct: made in house; host or cells: SF9 insect cells (baculovirus, transfer vector pBlueBacHis2 C)
T1 sequence (Q9UBB5 150-411 limits assumed): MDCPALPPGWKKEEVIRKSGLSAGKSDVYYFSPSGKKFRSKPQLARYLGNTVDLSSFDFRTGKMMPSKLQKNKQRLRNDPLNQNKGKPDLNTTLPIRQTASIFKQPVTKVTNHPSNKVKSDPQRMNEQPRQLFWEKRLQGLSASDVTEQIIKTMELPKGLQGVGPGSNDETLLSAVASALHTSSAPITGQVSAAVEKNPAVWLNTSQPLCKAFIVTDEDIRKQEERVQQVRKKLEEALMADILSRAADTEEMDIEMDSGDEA
Put plainly: In vitro demethylation assay with recombinant MBD2/dMTase. Format: biochemical. The following applies: for conversion of methyl-dCMP to dCMP by MBD2/dMTase: 24 hours at 37° C. Here is the method: AdoMet preparations for in vitro studies—AdoMet was prepared as a 50 mM solution in distilled water either by freeze drying a 32 mM AdoMet solution, which contained 10% ethanol and 5 mM sulfuric acid (New England Biolabs) immediately before use or by dissolving lyophilized powder (SIGMA) in distilled water. To control for possible nonspecific effects of remnants of the AdoMet storage buffer we freeze dried a solution of 5 mM sulfuric acid and 10% ethanol under the same conditions as done with the AdoMet solution and added distilled water after lyophilizing. AdoHcy was purchased from SIGMA and dissolved in distilled water at a 50 mM concentration.
Purification of recombinant MBD2/dMTase from SF9 cells—A fragment containing human MBD2/dMTase was excised from pCR2.1-dMTase (10) with BamHI and XhoI and transferred to the Baculovirus expression transfer vector pBlueBacHis2 C (Invitrogen). PBlueBacHis2 C-MBD2/dMTase and Bac-N-Blue viral DNA were co-transfected into the SF9 insect cell line, and recombinant viruses were isolated, identified and amplified according to the manufacturer's protocol (Invitrogen) with no modifications. High titer P3 viral stocks were used for infections. Insect SF9 cells were cultured in spinner flasks to a density of 2.5×10^6 cells/ml in Grace's Insect Cell Culture Medium Supplemented (1×) from Life Technologies. For infection, 5×10^6 cells were plated in 10 cm tissue culture plates (Sarstedt) and allowed to settle and attach for 30 minutes. The culture medium was removed and was replaced with 10 ml of the same medium containing MBD2/dMTase virus at a multiplicity of infection of 10. The cells were cultured with the virus for 5 days at 27° C. and were then harvested by scraping in cold phosphate buffered saline. Cell pellets from 10 plates were frozen and kept at −70° C. until they were used for enzyme purification. Frozen pellets were thawed in 5 ml of lysis buffer (10 mM Tris-HCl pH 8.0, 5 mM MgCl2, 500 mM NaCl, 0.05% Tween 20, 10% glycerol and 10 mM imidazole) containing 1 μg/ml of the following protease inhibitors: aprotinin, leupeptin and pefablock. Protease inhibitors were added to all the solutions used in the purification. The homogenates were subjected to two cycles of freezing and thawing (5 minutes per step). DNA in the homogenate was sheered by passing through a 18.5 gauge needle 10 times. The extracts were then subjected to 15 cycles of sonication (10 seconds burst, 10 seconds gap per cycle at 20% of maximal output). The extracts were centrifuged at 10,000×g for 35 minutes. The supernatant was transferred into a fresh tube and was recentrifuged for additional 25 minutes at 15,000×g. The extract was filtered through a 5 micron filter to remove any particulate matter and the buffer was exchanged on a PD-10 buffer exchange column (Amersham Pharmacia) with buffer L (10 mM Tris-HCl pH 8.0, 10 mM MgCl2) containing 50 mM NaCl. Recombinant MBD2/dMTase was partially purified by Q-sepharose (Pharmacia) ion exchange chromatography. Q-sepharose beads (1 ml of swollen beads) were washed extensively and preequilibrated with buffer L containing 50 mM NaCl and divided into 3 equal aliquots. The cell extracts were sequentially bound three times to the 3 aliquots of Q-sepharose beads in batch in 15 ml tubes by shaking gently on a Nutator for 45 minutes at 4° C. […]

The test system of experiment [4] is A549 human lung carcinoma cells. Put plainly: Soft agar assay (anchorage independent growth), A549 cells. Format: cell-based. To be noted: single 24 hour treatment at 4 mM, colonies counted 21 days after plating. On the procedure: as §1, §2

Turning to `Nc1ncnc2c1ncn2[C@@H]1O[C@H](CSCC[C@H](N)C(=O)O)[C@@H](O)[C@H]1O` [AdoHcy, S-adenosylhomocysteine], the “colony formation in soft agar (anchorage independent growth)” value in experiment [1] and in experiment [4] was “does not inhibit” each time. Also, the “percentage of methylated GFP remaining (inhibition of TSA induced active demethylation of methylated CMV-GFP)” value in experiment [2] (methylated CMV-GFP) is recorded as “insignificant effect”. In addition, the “TSA induced GFP expression of methylated CMV-GFP” value in experiment [3] (methylated CMV-GFP) is listed as “no significant effect”. For the same compound, the “effect of AdoHcy on inhibition of the demethylase reaction by AdoMet (competition experiment)” value on human MBD2/dMTase (increasing AdoHcy in presence of 10 mM AdoMet, up to tenfold concentration excess of AdoHcy) is “does not diminish inhibition”. The “inhibition of demethylation activity of MBD2/dMTase” value on human MBD2/dMTase (increasing concentrations of AdoHcy) was “no inhibition”.

In the case of `C[S+](CC[C@H](N)C(=O)[O-])C[C@H]1O[C@@H](n2cnc3c(N)ncnc32)[C@H](O)[C@@H]1O` (some centres unmarked) [AdoMet, S-Adenosylmethionine], the “colony formation in soft agar (anchorage independent growth)” value in experiment [1] was “only a minimal number of colonies”; in experiment [4] it was “no colonies are formed”. In experiment [2] (methylated CMV-GFP), the “percentage of methylated GFP remaining (inhibition of TSA induced active demethylation of methylated CMV-GFP)” value was “increases in a dose dependent manner”. Moreover, the “de novo methylation of unmethylated CMV-GFP” value in experiment [2] (unmethylated CMV-GFP, 8 mM AdoMet) is given as “does not get de novo methylated”. Besides, the “TSA induced GFP expression of methylated CMV-GFP” value in experiment [3] (methylated CMV-GFP) is “decreased in a dose dependent fashion”. In addition, the “induction of non-methylated GFP by TSA” value in experiment [3] (unmethylated CMV-GFP, 0.3 μM TSA plus AdoMet) was “no significant effect”. The “conversion of methyl-dCMP to dCMP by MBD2/dMTase” value on human MBD2/dMTase (2 mM AdoMet) was “greatly reduced”; on human MBD2/dMTase (AdoMet concentrations higher than 4 mM) it was “abolished completely”. The “inhibition of demethylation attained” value at human MBD2/dMTase (maximum inhibition on dose curve, average of 3 independent experiments) is recorded as 100%.

As to `CC(/C=C/C(=O)NO)=C\[C@@H](C)C(=O)c1ccc(N(C)C)cc1` [TSA, Trichostatin A], the “demethylation of methylated CMV-GFP by endogenous demethylase activity” value in experiment [2] (methylated CMV-GFP, 0.3 μM TSA alone) was “nearly complete demethylation”. In addition, the “GFP expression of methylated CMV-GFP” value in experiment [3] (methylated CMV-GFP, TSA alone) is given as “dramatic induction”.
